Experimental data from BindingDB's records for doi:10.1074/jbc.M113.534859 (Karlsruhe Institute of Technology, 2014).

molecular target: T1, Androgen receptor [646-919] (Human, UniProt P10275); experiment: Fluorescence Polarization Assay; conditions: pH 6.5
T1 construct: 646-919
T1 sequence (P10275 whole entry): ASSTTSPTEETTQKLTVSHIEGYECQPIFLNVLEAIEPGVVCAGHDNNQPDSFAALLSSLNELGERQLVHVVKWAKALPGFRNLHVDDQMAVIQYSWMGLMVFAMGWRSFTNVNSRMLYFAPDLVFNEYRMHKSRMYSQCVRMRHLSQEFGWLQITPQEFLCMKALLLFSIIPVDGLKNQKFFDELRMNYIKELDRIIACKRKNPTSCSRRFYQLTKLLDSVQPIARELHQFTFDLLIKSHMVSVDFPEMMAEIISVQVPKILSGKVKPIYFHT
Experimental: For the fluorescence polarization experiments, 5 nM fluorescently labeled Bag-1L (Bag-1L(1-20), fluorescein isothiocyanate (FITC)-[…]; Bag-1L(61-80), FITC-[…]) or SRC-2 peptide (FITC-[…]) was incubated with serially diluted AR-LBD (4 to 0.4 μM) in binding buffer (50 mM NaPO4, pH 6.5, 50 mM KCl, 1 mM DTT) and 10 μM DHT. The samples were then equilibrated for 45 min at ambient temperature. For the competition experiments, 400 to 0.4 nM Bag-1L core (GARRPR) or SRC-2 peptides ([…]) were incubated with 4 μM AR-LBD and 5 nM fluorescent Bag-1 or SRC-2 peptide. Binding was measured using polarization (excitation λ = 485 nm, emission λ = 530 nm) on a Synergy H1 hybrid reader (Biotek).

Kd [nM] | Substance
3300 | H-RGAAAGARRPRMKKKTRRRS-OH [Bag-1L (61-80)]
2000 | H-MAQRGGARRPRGDRERLGSR-OH [Bag-1L (1-20)]
2800 | H-HDSKGQTKLLQLLTTKSDQM-OH
